Columns and labels:
sunburns [1] = details: cited from earlier work; for SPF equivalent: topical application, background section, no trial described
photo ageing = test: Example 2: side effects in patients treated for photo ageing, topical tretinoin versus formulations of the invention; format: in vivo, human
Text: In a trial conducted by a practicing dermatologist, involving 267 patients undergoing treatment for photo ageing using slowly increasing strengths of topical tretinoin, side effects were frequent and prolonged. An average of 3.7 reactions sufficiently severe to cause discontinuation of therapy were experienced and each reaction required discontinuation of treatment for an average of 7.7 days. Only 14% of patients were able to be treated without side effects at the commercially available strength of 0.1% tretinoin. […] The side effects were mild and were ameliorated by re-introducing the regime as alternate day treatment in the areas of irritation. Only 1.5% of patients were unable to tolerate the regime.

photo aging = test: open label proof of concept trials over 5 years in 300 patients, reversal of photo aging; format: in vivo, human
Text: Animal models have an inherent limitation and are not necessarily directly applicable to humans. For example, various mammalian species have different metabolic characteristics. In particularly, most animals have the capacity to manufacture their own vitamin C.
Indeed, the studies appear to indicate a synergetic effect between vitamins C and E in the morning, and vitamins A and E in the evening.

sunburns [2] = test: ability to prevent sunburns (SPF equivalent) after topical application; format: in vivo, human
Text: Each of the three vitamins A, C and E, and complexes thereof, when topically applied individually at therapeutic levels, markedly increases the ability of the skin to absorb free radicals. Each vitamin molecule, as a measurement of this effect, adds the ability to absorb 2 MEDs (minimal erythema dose) of energy or a total of 6 MEDS if all three vitamins are present simultaneously. […] SPF (Sun Protection Factor) is a recognized measure of ultraviolet screen ability. Simultaneous application of a tri-vitamin regimen of vitamins A, C and E can result in an SPF equivalent of 24. Use of the three vitamins together in effective amounts results in enhanced protection of the skin against sunburn and, unlike sunscreens per se, persists in effect until the molecules are consumed by the body. […] The enhancement of photo protection by the tri-vitamin therapy according to the invention is particularly important as a solar spectrum (UVA, UVB) sun protectant. The effects of simultaneous use of the tri-vitamin regime and sunscreens are additive.
One measure of the activity has been to assess the ability to prevent sunburns.

sunburns [3] = test: Example 4: UVB sunburn study in 34 volunteers, test compounds applied before or after 1 or 3 MEDs of UVB; format: in vivo, human; details: for prevention of the development of sunburns: applied daily for 3 days before 1 or 3 MEDs of UVB; for treatment of the induced sunburns, review of the data of the left side: left side of the back
Procedure: In a study conducted by a practicing dermatologist, after informed consent, 34 volunteers were treated in the following manner. On the left side of the back, one inch squares were marked and treated daily for 3 days with 12 test compounds including a control of vehicle and a commercial identified sunscreen. After determining the MED (minimal erythema dose) for each subject, each subject was treated with one or 3 MEDs of UVB on both sides of the back. On the right side, 18 test compounds were applied including a vehicle control post sunburn at 0 hours, 8 hours, 24 and 48 hours. Measurements of the severity of the burns were recorded as the end point at 8, 24 and 48 hours.

| SMILES | SPF equivalent (sunburns [1]) | effect on sunburn (sunburns [2]) | prevention of the development of sunburns (sunburns [3]) | treatment of the induced sunburns, review of the data of the left side (sunburns [3]) | further results |
| --- | --- | --- | --- | --- | --- |
| CC1=C(/C=C/C(C)=C/C=C/C(C)=C/CO)C(C)(C)CCC1 [retinol] | 20 | – | – | – | – |
| CC1=C(/C=C/C(C)=C/C=C/C(C)=C/C(=O)O)C(C)(C)CCC1 [tretinoin, all-trans retinoic acid] | – | – | – | – | average discontinuation of treatment per reaction (photo ageing; 267 patients): 7.7 days; average reactions sufficiently severe to cause discontinuation of therapy (photo ageing; 267 patients, slowly increasing strengths): 3.7; patients able to be treated without side effects (photo ageing; at commercially available strength of 0.1%): 14% |
| CCCCCCCCCCCCCCCC(=O)OC/C=C(C)/C=C/C=C(C)/C=C/C1=C(C)CCCC1(C)C [vitamin A palmitate, retinyl palmitate] | 20 | – | – | – | frequency of irritation (photo aging; compared with topical tretinoin): markedly reduced frequency of irritation |
| O=C1O[C@H]([C@@H](O)CO)C(O)=C1O [vitamin C, L-ascorbic acid] | – | effective in reducing sunburns | able to prevent the development of sunburns | significant visible improvement | persistence of photoprotection (sunburns [1]; following a single application): at least 4 days |
| Cc1c(C)c2c(c(C)c1O)CC[C@@](C)(CCC[C@H](C)CCC[C@H](C)CCCC(C)C)O2 [vitamin E, α-tocopherol] | – | significantly ameliorated the signs and symptoms of sunburn | able to prevent the development of sunburns | significant visible improvement | treatment of sunburns (sunburns [3]; applied post sunburn): statistically visible significant treatment benefit; clinical effect on photo aging (photo aging; topical): enhance reversal of photo aging |

Source: patent US20080057138A1, “RESTORATIVE SKIN CREAM” (Telford Holdings Ltd., priority 2006, published 2008)
